In US20090012085A1, “DOSAGE FORMS AND METHODS OF TREATMENT USING A TYROSINE KINASE INHIBITOR” (priority 2005, published 2009):
Read-outs that look alike come from different tables or passages of the source.

Assay: Phase I dose-escalating study, plasma pharmacokinetics in patients with solid tumor
Type: in vivo, human
Details: for concentration at 6 h / concentration at 8 h / concentration at 10 h / concentration at 0 h / concentration at 1 h / concentration at 2 h / concentration at 3 h / concentration at 4 h / concentration at 20 h / concentration at 24 h / concentration at 48 h / concentration at 72 h / concentration at 96 h / concentration at 144 h / AUC(0-t) / Cmax / Tmax / half-life: human, plasma; for concentration at 6 h: nominal time 6 h; for concentration at 8 h: nominal time 8 h; for concentration at 10 h: nominal time 10 h; for concentration at 0 h: nominal time 0 h; for concentration at 1 h: nominal time 1 h; for concentration at 2 h: nominal time 2 h; for concentration at 3 h: nominal time 3 h; for concentration at 4 h: nominal time 4 h; for concentration at 20 h: nominal time 20 h; for concentration at 48 h: nominal time 48 h; for concentration at 72 h: nominal time 72 h; for concentration at 96 h: nominal time 96 h; for concentration at 144 h: nominal time 144 h; for AUC(0-t): read-out: AUC(0-24), mean (% CV); for Cmax: read-out: Cmax, mean (% CV); for Tmax: read-out: tmax, mean (% CV); for half-life: read-out: t½, mean (% CV) (converted)
Procedure: Cmax values, or maximum total plasma concentrations, of a compound of formula 1 can be measured according to techniques well known to those skilled in the art. For example, after a compound of formula 1 has been administered to a mammal, blood samples can be taken at fixed time points over a period of time (e.g. 24 hours) and the serum or plasma concentration of compound of formula 1 can be measured using standard analytical techniques known in the art. In vivo determinations Cmax can then be made by plotting the serum or plasma concentration of compound of formula 1 along the ordinate (y-axis) against time along the abscissa (x-axis).
The maleate salt of compound 1 was administered to human patients with solid tumor malignancies not amenable to conventional therapies in a Phase I dose-escalating multicenter study. The types of tumor malignancies included colorectal carcinoma, renal cell carcinoma, esophageal carcinoma, thymus carcinoma, mastocytosis, lung cancer and multiple endocrine neoplasia type II. Patients were treated in cohorts of 6 with escalating QD (once per day) doses of the maleate salt of compound 1 under fasting conditions. Each study cycle of 5 weeks consisted of 4 weeks of treatment followed by 1 week of rest (4/1 schedule), or continuous dosing without any rest period.
Full pharmacokinetic profiles were collected on Cycle 1 Day 1 (C1D1), Cycle 1 Day 28 (C1D28), and Cycle 2 Day 28 (C2D28). Preliminary pharmacokinetic parameters for the first 44 patients, i.e. the first 7 dosing groups, were estimated using nominal collection times and quality-controlled, non-quality assured bioanalytical data. The dosage amounts in Table 1A and Table 1B are free base equivalent amounts.

[1] = 25 mg QD, 25 mg QD 4/1 (n = 6), read-out: Mean plasma concentration following the last dose on cycle 1 day 28
[2] = 25 mg, 25 mg QD 4/1 (n = 6), read-out: Mean plasma concentration following the last dose on cycle 1 day 28
[3] = 25 mg, 25 mg QD (4/1), C1D1 (n = 6)
[4] = 25 mg, 25 mg QD (4/1), C1D28 (n = 6)
[5] = 25 mg, 25 mg QD (4/1), C2D28 (n = 5)
[6] = 50 mg QD, 50 mg QD 4/1 (n = 5), read-out: Mean plasma concentration following the last dose on cycle 1 day 28
[7] = 50 mg, 50 mg QD 4/1 (n = 5), read-out: Mean plasma concentration following the last dose on cycle 1 day 28
[8] = 50 mg, 50 mg QD (4/1), C1D1 (n = 6)
[9] = 50 mg, 50 mg QD (4/1), C1D28 (n = 5)
[10] = 50 mg, 50 mg QD (4/1), C2D28 (n = 3)
[11] = 100 mg QD, 100 mg QD 4/1 (n = 6), read-out: Mean plasma concentration following the last dose on cycle 1 day 28
[12] = 100 mg QD, 100 mg QD Continuous (n = 4), read-out: Mean plasma concentration following the last dose on cycle 1 day 28
[13] = 100 mg, 100 mg QD 4/1 (n = 6), read-out: Mean plasma concentration following the last dose on cycle 1 day 28
[14] = 100 mg, 100 mg QD (4/1), C1D1 (n = 7)
[15] = 100 mg, 100 mg QD (4/1), C1D28 (n = 6)
[16] = 100 mg, 100 mg QD (4/1), C2D28 (n = 4)
[17] = 100 mg, 100 mg QD (continuous), C1D1 (n = 6)
[18] = 100 mg, 100 mg QD (continuous), C1D28 (n = 6)
[19] = 100 mg, 100 mg QD (continuous), C2D28 (n = 4)
[20] = 100 mg, 100 mg QD Continuous (n = 4), read-out: Mean plasma concentration following the last dose on cycle 1 day 28

drug accumulation in plasma from cycle 1 to cycle 2 (100 mg QD continuous, Cmax and AUC0-24 of C1D28 vs C2D28): no drug accumulation
time of the longer elimination phase after dosing (4/1 schedule, after the last dose on Day 28): about 72 hours
change in the overall plasma elimination profile (across the 25- to 250-mg groups): no change
time of absorption after dosing (administered in the fasted state): ≤ 6 h
dose linearity of pharmacokinetics (first 44 patients, 25 to 250 mg): generally dose-linear pharmacokinetics
concentration at 6 h [1]: 50.3 ng/mL
concentration at 8 h [1]: 41.3 ng/mL
concentration at 10 h [1]: 36.8 ng/mL
concentration at 0 h [2]: 22.2 ng/mL
concentration at 1 h [2]: 50.1 ng/mL
concentration at 2 h [2]: 46.7 ng/mL
concentration at 3 h [2]: 47 ng/mL
concentration at 4 h [2]: 58.3 ng/mL
concentration at 20 h [2]: 19.5 ng/mL
concentration at 24 h (25 mg, 25 mg QD 4/1 (n = 6), nominal time 24 h, read-out: Mean plasma concentration following the last dose on cycle 1 day 28): 21.1 ng/mL
concentration at 48 h [2]: 6.24 ng/mL
concentration at 72 h [2]: 2.61 ng/mL
concentration at 96 h [2]: 1.58 ng/mL
concentration at 144 h [2]: 0.63 ng/mL
AUC(0-t) [3]: 547 ng·h/mL
concentration at 24 h (25 mg, 25 mg QD (4/1), C1D1 (n = 6), read-out: C(trough, 24 h), mean (% CV)): 13.8 ng/mL
Cmax [3]: 55.1 ng/mL
Tmax [3]: 2.8 h
half-life [3]: 11.9 h
AUC(0-t) [4]: 809 ng·h/mL
concentration at 24 h (25 mg, 25 mg QD (4/1), C1D28 (n = 6), read-out: C(trough, 24 h), mean (% CV)): 21.1 ng/mL
Cmax [4]: 72.9 ng/mL
Tmax [4]: 2.7 h
half-life [4]: 24.8 h
Cmax [5]: 61.8 ng/mL
Tmax [5]: 3.2 h
half-life [5]: 17.7 h
concentration at 3 h [6]: 85.6 ng/mL
concentration at 6 h [6]: 71.3 ng/mL
concentration at 8 h [6]: 68.6 ng/mL
concentration at 10 h [6]: 59.4 ng/mL
concentration at 0 h [7]: 37.2 ng/mL
concentration at 1 h [7]: 72.3 ng/mL
concentration at 2 h [7]: 84.5 ng/mL
concentration at 4 h [7]: 81.1 ng/mL
concentration at 20 h [7]: 30.5 ng/mL
concentration at 24 h (50 mg, 50 mg QD 4/1 (n = 5), nominal time 24 h, read-out: Mean plasma concentration following the last dose on cycle 1 day 28): 24.3 ng/mL
concentration at 48 h [7]: 25.4 ng/mL
concentration at 72 h [7]: 7.89 ng/mL
concentration at 96 h [7]: 17 ng/mL
concentration at 144 h [7]: 3.27 ng/mL
AUC(0-t) [8]: 888 ng·h/mL
concentration at 24 h (50 mg, 50 mg QD (4/1), C1D1 (n = 6), read-out: C(trough, 24 h), mean (% CV)): 20.8 ng/mL
Cmax [8]: 84.6 ng/mL
Tmax [8]: 2.8 h
half-life [8]: 10.8 h
AUC(0-t) [9]: 1350 ng·h/mL
concentration at 24 h (50 mg, 50 mg QD (4/1), C1D28 (n = 5), read-out: C(trough, 24 h), mean (% CV)): 50.8 ng/mL
Cmax [9]: 126 ng/mL
Tmax [9]: 6.6 h
half-life [9]: 24 h
AUC(0-t) [10]: 1790 ng·h/mL
concentration at 24 h (50 mg, 50 mg QD (4/1), C2D28 (n = 3), read-out: C(trough, 24 h), mean (% CV)): 44.2 ng/mL
Cmax [10]: 173 ng/mL
Tmax [10]: 3.3 h
half-life [10]: 18.9 h
concentration at 3 h [11]: 337 ng/mL
concentration at 4 h [11]: 344 ng/mL
concentration at 6 h [11]: 312 ng/mL
concentration at 8 h [11]: 261 ng/mL
concentration at 10 h [11]: 208 ng/mL
concentration at 3 h [12]: 460 ng/mL
concentration at 4 h [12]: 560 ng/mL
concentration at 6 h [12]: 707 ng/mL
concentration at 8 h [12]: 395 ng/mL
concentration at 10 h [12]: 566 ng/mL
concentration at 0 h [13]: 121 ng/mL
concentration at 1 h [13]: 218 ng/mL
concentration at 2 h [13]: 326 ng/mL
concentration at 20 h [13]: 311 ng/mL
concentration at 24 h (100 mg, 100 mg QD 4/1 (n = 6), nominal time 24 h, read-out: Mean plasma concentration following the last dose on cycle 1 day 28): 111 ng/mL
concentration at 48 h [13]: 60.8 ng/mL
concentration at 72 h [13]: 16.1 ng/mL
concentration at 96 h [13]: 9.96 ng/mL
concentration at 144 h [13]: 2.94 ng/mL
AUC(0-t) [14]: 2480 ng·h/mL
concentration at 24 h (100 mg, 100 mg QD (4/1), C1D1 (n = 7), read-out: C(trough, 24 h), mean (% CV)): 86.8 ng/mL
Cmax [14]: 270 ng/mL
Tmax [14]: 2.6 h
half-life [14]: 12.5 h
AUC(0-t) [15]: 6050 ng·h/mL
concentration at 24 h (100 mg, 100 mg QD (4/1), C1D28 (n = 6), read-out: C(trough, 24 h), mean (% CV)): 111 ng/mL
Cmax [15]: 413 ng/mL
Tmax [15]: 2.7 h
half-life [15]: 22 h
AUC(0-t) [16]: 2800 ng·h/mL
concentration at 24 h (100 mg, 100 mg QD (4/1), C2D28 (n = 4), read-out: C(trough, 24 h), mean (% CV)): 156 ng/mL
Cmax [16]: 181 ng/mL
Tmax [16]: 13.5 h
half-life [16]: 23 h
AUC(0-t) [17]: 1800 ng·h/mL
concentration at 24 h (100 mg, 100 mg QD (continuous), C1D1 (n = 6), read-out: C(trough, 24 h), mean (% CV)): 34.1 ng/mL
Cmax [17]: 171 ng/mL
Tmax [17]: 4.3 h
half-life [17]: 12.9 h
AUC(0-t) [18]: 2990 ng·h/mL
concentration at 24 h (100 mg, 100 mg QD (continuous), C1D28 (n = 6), read-out: C(trough, 24 h), mean (% CV)): 63 ng/mL
Cmax [18]: 255 ng/mL
Tmax [18]: 3.3 h
half-life [18]: 11.4 h
AUC(0-t) [19]: 3230 ng·h/mL
concentration at 24 h (100 mg, 100 mg QD (continuous), C2D28 (n = 4), read-out: C(trough, 24 h), mean (% CV)): 62.8 ng/mL
Cmax [19]: 250 ng/mL
Tmax [19]: 3.7 h
half-life [19]: 13.8 h
concentration at 0 h [20]: 284 ng/mL
concentration at 1 h [20]: 232 ng/mL
concentration at 2 h [20]: 524 ng/mL
concentration at 20 h [20]: 265 ng/mL
concentration at 24 h (100 mg, 100 mg QD Continuous (n = 4), nominal time 24 h, read-out: Mean plasma concentration following the last dose on cycle 1 day 28): 246 ng/mL
SMILES: Cc1[nH]c(/C=C2\C(=O)Nc3ccc(F)cc32)c(C)c1C(=O)NC[C@H](O)CN1CCOCC1 [compound 1, 5-[(Z)-(5-fluoro-2-oxo-1,2-dihydro-3H-indol-3-ylidene)methyl]-N-[(2S)-2-hydroxy-3-morpholin-4-ylpropyl]-2,4-dimethyl-1H-pyrrole-3-carboxamide]
